# Entries after “also recorded” stand apart in the source; their conditions may differ. Where no end group is shown, it is not given here.
# What was measured:
# mice = assay: mouse IV toxicity studies (pilot single dose, GLP 14-day, acute); format: in vivo
# Procedure: Two pilot and 2 definitive repeat-dose toxicity studies were conducted with RIVPA (SEQ ID NO. 5) in mice and cynomolgus monkeys using the intravenous (IV; slow bolus) route of administration. All studies were conducted by LAB Research Inc., Canada.
# These resolved within a few minutes without detectable residual effects.
# The safety of multiple daily injections of RIVPA (SEQ ID NO. 5) has also been evaluated in GLP studies in mice and cynomolgus monkeys. In mouse, doses of 20, 60, or 90 mg/kg/day were given IV for 14 days.
# The observed respiratory depression occurred at different dose levels in different species, and was not predicted by allometric scaling. In particular, the mouse appeared to be the most sensitive species with acute toxicity occurring rarely at 60 mg/kg (HED: ^˜5 mg/kg) and commonly at 90 mg/kg (HED: ^˜7 mg/kg). In contrast in NHP (cynomologus monkey), acute toxicity occurred occasionally at 160 mg/kg (HED: ^˜50 mg/kg) and consistently at 240 mg/kg (HED: ^˜78 mg/kg).
# [1] = tested on: central nervous system (CNS); assay: effects on the central nervous system in any study; format: in vivo; settings: any study at any dose level
# Procedure: No effects of RIVPA (SEQ ID NO. 5) have been observed on the central nervous system (CNS) in any study at any dose level and little or no radiolabelled RIVPA (SEQ ID NO. 5) was found in the mouse CNS at dose levels of either 20 or 90 mg/kg.
# male C3H/HeN mice = assay: chemotherapy-induced oral and gastrointestinal mucositis in the mouse; format: in vivo
# Procedure: In each study, 5-fluorouracil (60 mg/kg IP) was administered to male C3H/HeN mice on Days −4 and −2. […] […] Body weights were also measured daily and colitis severity was determined by video endoscopy on Days 4 and 7. In the first study, RIVPA (SEQ ID NO. 5) (25 mg/kg IV) was administered either once on Day −4 immediately prior to chemotherapy, twice on Days −4 and −2 immediately after chemotherapy or 3 times on Days −1, 2 and 5. […] In the second study, RIVPA (SEQ ID NO. 5) (25 mg/kg IV) was administered on either Days −1, 2 and 5, Days −1, 1 and 3 or Days 0, 2, and 4. […] In the third study, RIVPA (SEQ ID NO. 5) (25 or 5 mg/kg IV, as indicated) was administered either on Days −1, 2 and 5 or on Days 1 and 3. […] Statistical significance was assessed for oral mucositis using a chi-square analysis and for body weight area under the curve (AUC) with an ANOVA on ranks. […] Treatment with R(tBg)V1KR(tBg)V2 (SEQ ID NO. 91) and RIV(mp2)A-NH2 (SEQ ID NO. 92) was administered on Days −1 and 2 at a dose of 25 mg/kg IV.
# mouse normal blood cells = assay: proliferation of mouse normal blood cells in vitro; format: cell-based
# S. aureus = S. aureus infection studies, single IV RIVPA treatment (Table 2 summary); format: in vivo, mouse; settings: for % Successful Treatments Any Dose Schedule: success = at least 20% increase in survival over saline control
# human normal blood cells = assay: proliferation of human normal blood cells in vitro; format: cell-based
# [2] = mouse, 5-fluorouracil chemotherapy model, RIVPA IV
substance,measurement,setting,value
"RIVPA-NH2 [RIVPA (SEQ ID NO. 5), RIVPA]","immune-related organ weights, histopathology, hematology and clinical chemistry",mice; mouse 14-day toxicity study,no changes were observed
same,adverse effects,"mice; mouse, 20 mg/kg for 14 days",No adverse effects were observed
same,mortality or clinical signs,"mice; mouse, 20 mg/kg/day IV for 14 days",No test article-related mortality or clinical signs
same,HED of acutely toxic dose,"mice; mouse, 60 mg/kg",~5 mg/kg
same,occurrence of acute toxicity (respiratory depression),"mice; mouse, 60 mg/kg",rarely
same,mortality,"mice; mouse, 60 mg/kg/day IV for 14 days",Lethality was also observed in 1 animal
same,HED of acutely toxic dose,"mice; mouse, 90 mg/kg",~7 mg/kg
same,occurrence of acute toxicity (respiratory depression),"mice; mouse, 90 mg/kg",commonly
same,mortality,"mice; mouse, 90 mg/kg/day IV for 14 days",Deaths were observed
same,"organ toxicity, biochemistry, hematology","mice; mouse, survivors of all groups, 14 days",no evidence of toxicity in any organ or abnormal biochemistry or hematology
same,effects on the central nervous system (CNS),[1],No effects
same,treatment effectiveness on mucositis,"male C3H/HeN mice; first study, 25 mg/kg IV 3 times on Days −1, 2 and 5",most effective
same,duration of severe oral mucositis,"male C3H/HeN mice; mouse, 5-fluorouracil 60 mg/kg IP Days −4 and −2, chemical burn of tongue Day 0, RIVPA IV",reduces; also recorded: statistically significant reduction
same,body weight loss,male C3H/HeN mice; [2],reduces
same,severity of colitis (video endoscopy),male C3H/HeN mice; [2],reduces; also recorded: trend towards reduced colitis
same,efficacy at decreased dose levels,"male C3H/HeN mice; third study, 5 vs 25 mg/kg IV",decreased efficacy
same,treatment effectiveness on mucositis,"male C3H/HeN mice; third study, dosing every third day (Days −1, 2 and 5)",most effective
same,proliferation of normal blood cells,mouse normal blood cells,did not promote the proliferation
same,dose dependence of effects,S. aureus; between 1 and 50 mg/kg in mouse,dose dependent
same,dose levels consistently demonstrating efficacy,"S. aureus; mouse, stand-alone IV",≥ 25 mg/kg
same,% Successful Treatments RIVPA administered 4 h prior to infection,S. aureus; single IV dose 1 mg/kg,0%
same,% Successful Treatments Any Dose Schedule,S. aureus; single IV dose 1 mg/kg,0%
same,% Successful Treatments RIVPA administered 4 h prior to infection,S. aureus; single IV dose 5 mg/kg,33%
same,% Successful Treatments Any Dose Schedule,S. aureus; single IV dose 5 mg/kg,42%
same,% Successful Treatments RIVPA administered 4 h prior to infection,S. aureus; single IV dose 25 mg/kg,50%
same,% Successful Treatments Any Dose Schedule,S. aureus; single IV dose 25 mg/kg,67%
same,% Successful Treatments RIVPA administered 4 h prior to infection,S. aureus; single IV dose 50 mg/kg,100%
same,% Successful Treatments Any Dose Schedule,S. aureus; single IV dose 50 mg/kg,100%
same,proliferation of normal blood cells,human normal blood cells,did not promote the proliferation
